Consider three compounds from ChEMBL document CHEMBL1201862, “PubChem BioAssay data set” (2004).

Structures are written as SMILES.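 Growth conditions: 96-well plates. Treatment: test compound, 48 hours, 5 concentrations. Analysis: linear interpolation between bracketing concentrations; unreached endpoints set to highest concentration. GI50 = concentration required for 50% inhibition of growth.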 The source made the active and inactive calls. Cut-off read from the data, not from the text of the source: active = GI50 up to about 1.1 µM and inactive = higher.

Experiment in all cases: NCI tumour cell line growth inhibition, 48 h
The test system of assay [1] is 786-0.
Assay [2] relates to HOP-62.
For assay [3], the system named is M14.
Assay [4] has as its system SF-539.
Assay [5] has as its system RPMI-8226.
The subject of assay [6] is CAKI-1.
Assay [7] relates to SK-MEL-5.
For assay [8], the system named is LXFL 529.
Assay [9] deals with UACC-62.
For assay [10], the system named is NCI-H522.
Assay [11] has as its system SNB-19.
In assay [12] the test system is OVCAR-8.
The test system of assay [13] is NCI-H23.
Assay [14] concerns A498.
Assay [15] deals with SNB-75.
In assay [16] the test system is OVCAR-3.
For assay [17], the system named is TK-10.
The subject of assay [18] is MDA-MB-231.
In assay [19] the test system is T47D.
Assay [20] concerns NCI/ADR-RES.

Consider `N#C/C(=C(/S)Nc1ccccc1)c1nc2ccccc2[nH]1`, for which the GI50 in [1], in [2], in [3], in assay [4], in [5] and in assay [6] was > 10 µM (inactive) each time. For the same compound, the GI50 in assay [7], in assay [8], in assay [9], in assay [10], in [11] and in [12] was > 10 µM (inactive) each time. Besides, the GI50 in assay [13], in assay [14], in assay [15], in assay [16] and in [17] was > 10 µM (inactive) each time.

In the case of `O=C1C(NCCO)=C(N2CC2)C(=O)C(NCCO)=C1N1CC1`, the GI50 is 24.4 µM (inactive) in assay [1]; 27.4 µM (inactive) in assay [2]; 47.3 µM (inactive) in [3]; 39.4 µM (inactive) in assay [4]; 44.6 µM (inactive) in [5]; > 90.4 µM (inactive) in assay [18]. The GI50 in [6] is 85.9 µM (inactive); in [7], 50 µM (inactive); in assay [8], > 51.6 µM (inactive); in [19], > 69.2 µM (inactive); in assay [9], 25.1 µM (inactive); in assay [20] it was > 100 µM (inactive). Further, the GI50 is 31.3 µM (inactive) in assay [10]; 60.7 µM (inactive) in assay [11]; 37.1 µM (inactive) in assay [12]; 29.2 µM (inactive) in assay [13]; > 100 µM (inactive) in assay [14]; 63.8 µM (inactive) in assay [15]. Further, the GI50 in assay [16] was 33.7 µM (inactive); in [17] it was > 100 µM (inactive).

Consider `CCOC(=O)NC1=C(N2CC2)C(=O)C(NC(=O)OCC)=C(N2CC2)C1=O` [DIAZIQUONE], for which the GI50 is 1.56 µM (inactive) in [1]; 0.741 µM (active) in assay [2]; 2.62 µM (inactive) in assay [3]; 1.75 µM (inactive) in [4]; 3.99 µM (inactive) in [5]; 8.13 µM (inactive) in assay [18]. The GI50 in [6] is 1.08 µM (active); in [7], 3.72 µM (inactive); in assay [8], 4.92 µM (inactive); in [19], 6.21 µM (inactive); in assay [9], 0.489 µM (active); in assay [20], 3.48 µM (inactive). The GI50 in [10] was 3.14 µM (inactive); in assay [11], 4.11 µM (inactive); in [12] it was 3.73 µM (inactive); in [13], 1.85 µM (inactive); in assay [14] it was 3.56 µM (inactive); in assay [15] it was 4.73 µM (inactive). Besides, the GI50 in [16] was 4.75 µM (inactive); in assay [17], 31.6 µM (inactive).
